Values of other authors in PubChem BioAssay AID1259409 (Chemical Carcinogenesis Research Information System (CCRIS), 2018).

Tested on: rodent chemically induced tumor inhibition, incidence and multiplicity
Assay: CCRIS tumor inhibitor studies
Conditions: Carcinogen: 2,2'-DIHYDROXY-DI-N-PROPYLNITROSAMINE, 53609-64-6, 13147-25-6, Carcinogen: 2,2'-DIHYDROXY-DI-N-PROPYLNITROSAMINE, 53609-64-6, 13147-25-6, Dose [Inhibitor]: 0, Route [Inhibitor]: ORAL, Species: RAT, Strain/Sex: F344/MALE, Promoter: NONE USED
From the text: The CCRIS database contains chemical records with carcinogenicity, mutagenicity, tumor promotion, and tumor inhibition test results. It was developed by the National Cancer Institute (NCI). Data are derived from studies cited in primary journals, current awareness tools, NCI reports, and other sources. Test results have been reviewed by experts in carcinogenesis and mutagenesis.
CCRIS provides historical information from the years 1985 - 2011. It is no longer updated.
This is an archive assay for CCRIS tumor inhibitor studies.

SMILES: O=C(OC[C@@H]1O[C@H](OC(=O)c2cc(O)c(O)c(OC(=O)c3cc(O)c(O)c(O)c3)c2)[C@@H](OC(=O)c2cc(O)c(O)c(OC(=O)c3cc(O)c(O)c(O)c3)c2)[C@H](OC(=O)c2cc(O)c(O)c(OC(=O)c3cc(O)c(O)c(O)c3)c2)[C@H]1OC(=O)c1cc(O)c(O)c(OC(=O)c2cc(O)c(O)c(O)c2)c1)c1cc(O)c(O)c(OC(=O)c2cc(O)c(O)c(O)c2)c1
- tumour outcome (control, treated, inhibition, significance) (N-ETHYL-N-HYDROXYETHYL- NITROSAMINE, 3,2'-DIMETHYL-4-, N-ETHYL-N-HYDROXYETHYL- NITROSAMINE, 3,2'-DIMETHYL-4-, 1% IN DIET BEGINNING 1 WK POST LAST CARCINOGEN DOSE AND CONTINUING FOR 32 WK (STUDY DURATION: 36 WK), Target Tissue: Type of Lesion: LARGE INTESTINE: ADENOMA, Dose [Carcinogen]: 1000 MG/KG IP DHPN 2X, 1500 MG/KG GAV EHEN 2X AND 75 MG/KG SC DMAB GIVEN OVER THE INITIAL 3 WK PERIOD AT 3-4 D INTERVALS): 7/14 (50%), 2/12 (17%), 66%, not calculated
- tumour outcome (control, treated, inhibition, significance) (N-ETHYL-N-HYDROXYETHYL- NITROSAMINE, 3,2'-DIMETHYL-4-, N-ETHYL-N-HYDROXYETHYL- NITROSAMINE, 3,2'-DIMETHYL-4-, 1% IN DIET BEGINNING 1 WK POST LAST CARCINOGEN DOSE AND CONTINUING FOR 32 WK (STUDY DURATION: 36 WK), Target Tissue: Type of Lesion: LARGE INTESTINE: CARCINOMA, Dose [Carcinogen]: 1000 MG/KG IP DHPN 2X, 1500 MG/KG GAV EHEN 2X AND 75 MG/KG SC DMAB 3X GIVEN OVER THE INITIAL 3 WK AT 3-4 D INTERVALS): 3/14 (21%), 1/12 (8%), 62%, not calculated
- tumour outcome (control, treated, inhibition, significance) (N-ETHYL-N-HYDROXYETHYL- NITROSAMINE, 3,2'-DIMETHYL-4-, N-ETHYL-N-HYDROXYETHYL- NITROSAMINE, 3,2'-DIMETHYL-4-, 1% IN DIET BEGINNING 1 WK POST LAST CARCINOGEN DOSE AND CONTINUING FOR 32 WK (STUDY DURATION: 36 WK), Target Tissue: Type of Lesion: LUNG: ADENOMA, Dose [Carcinogen]: 1000 MG/KG IP DHPN 2X, 1500 MG/KG GAV EHEN 2X AND 75 MG/KG SC DMAB 3X GIVEN OVER THE INITIAL 3 WK AT 3-4 D INTERVALS): 7/14 (50%), 7/12 (58%), -16%, not calculated
- tumour outcome (control, treated, inhibition, significance) (N-ETHYL-N-HYDROXYETHYL- NITROSAMINE, 3,2'-DIMETHYL-4-, N-ETHYL-N-HYDROXYETHYL- NITROSAMINE, 3,2'-DIMETHYL-4-, 1% IN DIET BEGINNING 1 WK POST LAST CARCINOGEN DOSE AND CONTINUING FOR 32 WK (STUDY DURATION: 36 WK), Target Tissue: Type of Lesion: LUNG: CARCINOMA, Dose [Carcinogen]: 1000 MG/KG IP DHPN 2X, 1500 MG/KG GAV EHEN 2X AND 75 MG/KG SC DMAB 3X GIVEN OVER THE INITIAL 3 WK PERIOD AT 3-4 D INTERV): 1/14 (7%), 2/12 (17%), -143%, not calculated
- tumour outcome (control, treated, inhibition, significance) (N-ETHYL-N-HYDROXYETHYL- NITROSAMINE, 3,2'-DIMETHYL-4-, N-ETHYL-N-HYDROXYETHYL- NITROSAMINE, 3,2'-DIMETHYL-4-, 1% IN DIET BEGINNING 1 WK POST LAST CARCINOGEN DOSE AND CONTINUING FOR 32 WK (STUDY DURATION: 36 WK), Target Tissue: Type of Lesion: URINARY BLADDER: CARCINOMA, Dose [Carcinogen]: 1000 MG/KG IP DHPN 2X, 1500 MG/KG GAV EHEN 2X AND 75 MG/KG SC DMAB 3X GIVEN OVER THE INITIAL 3 WK PERIOD AT 3-4 D INTERV): 1/14 (7%), 2/12 (17%), -143%, not calculated
- outcome (N-ETHYL-N-HYDROXYETHYL- NITROSAMINE, 3,2'-DIMETHYL-4-, N-ETHYL-N-HYDROXYETHYL- NITROSAMINE, 3,2'-DIMETHYL-4-, 1% IN DIET BEGINNING 1 WK POST LAST CARCINOGEN DOSE AND CONTINUING FOR 32 WK (STUDY DURATION: 36 WK), Target Tissue: Type of Lesion: URINARY BLADDER: PAPILLOMA, Dose [Carcinogen]: 1000 MG/KG IP DHPN 2X, 1500 MG/KG GAV EHEN 2X AND 75 MG/KG SC DMAB 3X GIVEN OVER THE INITIAL 3 WK PERIOD AT 3-4 D INTERV): 0/14 (0%), 3/12 (25%), -100%, not calculated
- tumour outcome (control, treated, inhibition, significance) (N-ETHYL-N-HYDROXYETHYL- NITROSAMINE, 3,2-DIMETHYL-4-A, N-ETHYL-N-HYDROXYETHYL- NITROSAMINE, 3,2-DIMETHYL-4-A, 1% IN DIET BEGINNING 1 WK POST LAST CARCINOGEN DOSE AND CONTINUING FOR 32 WK (STUDY DURATION: 36 WK), Target Tissue: Type of Lesion: LIVER: HEPATOCELLULAR CARCINOMA, Dose [Carcinogen]: 100 MG/KG IP DHPN 2X, 1500 MG/KG GAV EHEN 2X AND 75 MG/KG SC DMAB 3X GIVEN OVER THE INITIAL 3 WK PERIOD AT 3-4 D INTERVA): 6/14 (43%), 3/12 (25%), 42%, not calculated
- tumour outcome (control, treated, inhibition, significance) (N-ETHYL-N-HYDROXYETHYLNITROSAMINE, 3,2'-DIMETHYL-1,4-, N-ETHYL-N-HYDROXYETHYLNITROSAMINE, 3,2'-DIMETHYL-1,4-, 1% IN DIET FOR 4 WK BEGINNING 1 D PRIOR TO FIRST CARCINOGEN DOSE (STUDY DURATION: 36 WK), Target Tissue: Type of Lesion: KIDNEY: ADENOMA, Dose [Carcinogen]: 1000 MG/KG BW DHPN TWICE, 1500 MG/KG THEN TWICE, 75 MG/KG BW DMAB 3 TIMES, SEQUENTIALLY OVER 3 WK): 6/10 (60%), 6/12 (50%), 17%, not significant
- tumour outcome (control, treated, inhibition, significance) (N-ETHYL-N-HYDROXYETHYLNITROSAMINE, 3,2'-DIMETHYL-1,4-, N-ETHYL-N-HYDROXYETHYLNITROSAMINE, 3,2'-DIMETHYL-1,4-, 1% IN DIET FOR 4 WK BEGINNING 1 D PRIOR TO FIRST CARCINOGEN DOSE (STUDY DURATION: 36 WK), Target Tissue: Type of Lesion: LUNG: ADENOMA, Dose [Carcinogen]: 1000 MG/KG BW DHPN TWICE, 1500 MG/KG THEN TWICE, 75 MG/KG BW DMAB 3 TIMES, SEQUENTIALLY OVER 3 WK): 5/10 (50%), 7/12 (58%), -16%, not significant
- tumour outcome (control, treated, inhibition, significance) (N-ETHYL-N-HYDROXYETHYLNITROSAMINE, 3,2'-DIMETHYL-4-AMINO-, N-ETHYL-N-HYDROXYETHYLNITROSAMINE, 3,2'-DIMETHYL-4-AMINO-, 1% IN DIET FOR 32 WK BEGINNING 1 WK POST CARCINOGEN TREATMENT (STUDY DURATION: 36 WK), Target Tissue: Type of Lesion: KIDNEY: NEPHROBLASTOMA, Dose [Carcinogen]: 1000 MG/KG BW DHPN TWICE, 1500 MG/KG BW THEN TWICE, 75 MG/KG BW DMAB 3 TIMES ADMINISTERED OVER FIRST 3 WK): 2/14 (14%), 0/12 (0%), 100%, not significant
